# Structures can show the parent of a compound that is named as a salt. Residues, ends and D or L forms follow the SMILES beside them.
# Legend:
# [1] = system: B16 melanoma cancer cells; assay: B16 melanoma model in mice (tumor weight); type: in vivo; settings: B16 melanoma cells (10^6) s.c. in mice; 1 mg peptide s.c. on day 7; tumours weighed on day 12
# Method: FIG. 3 Prevention of cancer growth by cyclic GLQGE (SEQ ID NO: 5) in form of hydrochloride salt (cyclic GLQGE HCl salt). B16 melanoma cancer cells were injected subcutaneously in mice. On day 7, injection with 1 mg of the peptide or 0.9% NaCl subcutaneously was performed. On day 12 mice were euthanized and tumors removed and weighed. N=11/11 mice. Data presented as mean+SEM.
# The cyclic peptide Gly-Leu-Gln-Gly-Glu (cyclic GLQGE; SEQ ID NO: 5) in form of hydrochloride salt was tested for its ability in prevention of cancer growth in a melanoma model in mice. B16 melanoma cancer cells (10^6 cells) were injected subcutaneously in mice. On day 7, injection with 1 mg of the cyclic GLQGE peptide (SEQ ID NO: 5) or 0.9% NaCl (control mice) subcutaneously was performed. On day 12 mice were euthanized and tumours removed and weighed. N=11/11 mice. Results are shown on FIG. 3 as mean+SEM. […] Thus, the cyclic peptide Gly-Leu-Gin-Gly-Glu (SEQ ID NO: 5) represents a promising therapeutic drug for use in the treatment of cancer.
# [2] = system: breast cancer cell line MDA-MB-231; assay: breast cancer model in mice, MDA-MB-231 intratibial (bioluminescence imaging); type: in vivo; settings: MDA-MB-231 intratibially in CD1 nude mice; 0.1 mg s.c. daily from day 30 for 10 days; read on day 40; vs 0.9% NaCl
# Method: FIG. 5 Prevention of breast cancer growth by cyclic GLQGE (SEQ ID NO: 5) in form of hydrochloride salt (cyclic GLQGE HCl salt). Cells from the breast cancer cell line MDA-MB-231 were injected intratibially in mice. Starting on day 30, injection with 0.1 mg/mouse/day of the cyclic peptide Gly-Leu-Gln-Gly-Glu (SEQ ID NO: 5) (cyclic GLQGE HCl salt) for 10 days or 0.9% NaCl subcutaneously was performed. On day 40, the size of the tumour was evaluated by bioluminescence imaging (Bioluminescence imaging was performed by detecting photon signal 5 minutes after D-luciferin injection (150 mg/kg) using an “IVIS Lumina II” imaging system. The resulting images were analysed using the software “Living Image”). RLU=relative light units. The number of animals in each group was N=14/7 mice, in two experiments. * p<0.05 as evaluated by t-test. Data are presented as mean+SEM.
# The hydrochloride salt of cyclic peptide Gly-Leu-Gln-Gly-Glu (cyclic GLQGE; SEQ ID NO: 5) was tested for its ability in prevention of breast cancer in mice. […] On day 40, the size of the tumor was evaluated by bioluminescence imaging (Bioluminescence imaging was performed by detecting photon signal 5 minutes after D-luciferin injection (150 mg/kg) using an “IVIS Lumina II” imaging system. The resulting images were analyzed using the software “Living Image”). […]
smiles,measurement,setting,value
"CC(C)C[C@@H]1NC(=O)CNC(=O)[C@H](CCC(=O)O)NC(=O)CNC(=O)[C@H](CCC(N)=O)NC1=O [SEQ ID NO: 5 (HCl salt), Gly-Leu-Gln-Gly-Glu] (HELM PEPTIDE1{E.G.L.Q.G}$PEPTIDE1,PEPTIDE1,1:R1-5:R2$$$V2.0)",diminution of cancer size (tumor weight) as compared to control mice,[1],approximately 72%
same,size of the tumor by bioluminescence imaging,[2],significantly (p<0.05) diminished
